Assay results taken from BindingDB's records for doi:10.1016/j.bmc.2012.08.058 (Purdue University, 2012).

Experiments:
D(3) dopamine receptor [1] = target: T1, D(3) dopamine receptor (Homo sapiens, UniProt P35462); test: Agonist activity at dopamine D3 receptor in human U2OS-D3 cells assessed as EA-tagged beta-arrestin translocation after 1.5 hrs by luminescence based beta-galactosidase assay
D(3) dopamine receptor [2] = target: T1, D(3) dopamine receptor; test: Displacement of [3H]-N-methylspiperone from human dopamine D3 receptor expressed in HEK293 cells after 30 mins by scintillation counting
D(2) dopamine receptor = D(2) dopamine receptor (Homo sapiens, UniProt P14416); test: Displacement of [3H]-N-methylspiperone from human dopamine D2long receptor expressed in HEK293 cells after 30 mins by scintillation counting
D(2) dopamine receptor, sequence (P14416 whole entry): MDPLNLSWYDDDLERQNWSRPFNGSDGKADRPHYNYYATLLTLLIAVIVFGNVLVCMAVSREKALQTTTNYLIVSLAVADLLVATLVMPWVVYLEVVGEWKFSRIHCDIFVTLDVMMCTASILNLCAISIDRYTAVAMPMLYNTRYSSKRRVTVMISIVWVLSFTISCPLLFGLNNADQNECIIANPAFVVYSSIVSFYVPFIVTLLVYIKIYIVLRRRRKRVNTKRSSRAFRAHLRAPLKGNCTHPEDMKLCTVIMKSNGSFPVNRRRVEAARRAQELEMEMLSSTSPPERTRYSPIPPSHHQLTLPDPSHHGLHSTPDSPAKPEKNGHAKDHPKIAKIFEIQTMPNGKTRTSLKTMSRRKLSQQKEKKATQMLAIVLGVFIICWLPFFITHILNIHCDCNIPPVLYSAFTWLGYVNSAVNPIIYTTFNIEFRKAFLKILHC

T1 sequence (P35462 as listed by the source): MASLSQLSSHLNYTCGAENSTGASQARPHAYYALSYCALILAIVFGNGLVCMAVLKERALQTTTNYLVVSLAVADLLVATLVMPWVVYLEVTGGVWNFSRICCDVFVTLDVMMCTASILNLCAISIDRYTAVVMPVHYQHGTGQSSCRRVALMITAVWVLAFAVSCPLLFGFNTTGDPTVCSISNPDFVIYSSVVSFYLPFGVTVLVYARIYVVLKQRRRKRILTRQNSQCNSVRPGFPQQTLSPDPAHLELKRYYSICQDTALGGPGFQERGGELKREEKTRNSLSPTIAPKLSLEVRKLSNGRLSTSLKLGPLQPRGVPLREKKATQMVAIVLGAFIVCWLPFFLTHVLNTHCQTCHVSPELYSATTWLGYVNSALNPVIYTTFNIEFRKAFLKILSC

CCCN1C[C@H](c2ccc(O)cc2)C[C@@H]2c3cc(O)c(O)cc3CC[C@H]21
EC50 (D(3) dopamine receptor [1]): 0.046 µM
Ki (D(3) dopamine receptor [2]): 0.0011 µM
Ki (D(2) dopamine receptor): 0.16 µM
